In patent publication US12643887B2, “Heterocyclic derivatives with cardiomyocyte proliferation activity for treatment of heart diseases” (Tongji University, priority 2019, dated 2026):

Columns and labels:
Assay type in all cases: biochemical
human DYRK1A = target: T1, human DYRK1A (Homo sapiens, UniProt Q13627); test: DYRK1A enzyme assay (ADP-Glo); conditions: ADP-Glo, ATP 60 μM; read-out: DYRK1A IC50
T1 construct: Recombinant full-length DYRK1A (expressed in E. Coli cells with an N-terminal GST tag); GST (N); purchased SignalChem D09-10G; host or cells: E. coli
Description: The ability of compounds to inhibit human DYRK1A kinase activities was determined using a commercially available ADP-Glo™ Kinase Assay kit (Promega, Cat #V9102) according to the manufacturer's protocol.
Recombinant full-length DYRK1A (expressed in E. Coli cells with an N-terminal GST tag) was purchased from SignalChem (Cat #D09-10G). The DYRK substrate peptide (DYRKtide, sequence: […]) was purchased from SignalChem (Cat #D96-58). This assay, run in a 384-well plate format, is a generic method for measuring kinase activities using an ADP-Glo Kinase Assay Kit. The basic assay procedure involves two steps: (1) Enzymatic step: inhibitors are incubated with the kinase and then ATP (included in the ADP-Glo Kinase Assay Kit) and the DYRKtide are added to start the enzymatic reaction; (2) Detection step: after the kinase reaction, first ADP-Glo™ Reagent is added to terminate the kinase reaction and deplete the remaining ATP. Second, the Kinase Detection Reagent is added to simultaneously convert ADP to ATP and allow the newly synthesized ATP to be measured using a luciferase/luciferin reaction. The light generated is measured using a luminometer.
(§1) Briefly, DYRK1A (3 nM) in the enzymatic buffer solutions (40 mM Tris, pH 7.5, 20 mM MgCl2, 0.1 mg/ml BSA, 50 μM DTT) were mixed with various concentrations of inhibitors (dissolved in 100% DMSO). These solutions were incubated for 30 minutes at 25° C., and subsequently a mixture of substrate peptide and ATP was added with the final peptide and ATP concentrations at 20 μM and 60 μM, respectively. The final reaction mixture of enzyme-substrate-ATP-compound was incubated for 60 minutes at 25° C.
(§2) Afterwards ADP-Glo™ Reagent was added and the mixture was incubated at 25° C. for 60 minutes. Then Kinase Detection Reagent was added and the final mixture was incubated at 25° C. for 60 minutes. The luminescence signal of the final solution was measured on an Envision instrument (PerkinElmer). The percent (%) inhibition at each concentration of a compound is calculated relative to the luminescence signal in the Max and Min control wells contained within each assay plate. […] The concentrations and percent inhibition values for a test compound are plotted and the concentration of the compound required to achieve 50% inhibition (IC50) is determined with a four-parameter logistic dose response equation.

human GSK3 beta = target: T2, human GSK3 beta (Homo sapiens, UniProt P49841); test: GSK3 beta enzyme assay (ADP-Glo); conditions: ATP 25 μM, read-out: GSK3b IC50
T2 construct: Recombinant full-length human GSK3 beta (expressed in Sf9 insect cells with an N-terminal His tag); His (N); purchased SignalChem G09-10H; host or cells: Sf9 insect cells
T2 sequence (P49841 whole entry): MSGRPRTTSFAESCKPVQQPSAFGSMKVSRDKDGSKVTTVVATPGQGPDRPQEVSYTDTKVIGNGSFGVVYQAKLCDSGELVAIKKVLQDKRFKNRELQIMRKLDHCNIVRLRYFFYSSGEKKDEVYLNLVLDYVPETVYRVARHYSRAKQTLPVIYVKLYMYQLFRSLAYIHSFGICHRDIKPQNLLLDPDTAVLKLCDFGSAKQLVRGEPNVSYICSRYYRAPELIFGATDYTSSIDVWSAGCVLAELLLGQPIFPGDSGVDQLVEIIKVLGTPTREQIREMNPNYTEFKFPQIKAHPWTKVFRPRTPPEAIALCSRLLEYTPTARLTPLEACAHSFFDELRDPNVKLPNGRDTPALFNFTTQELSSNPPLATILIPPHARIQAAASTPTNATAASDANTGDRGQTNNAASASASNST
Description: 1. GSK3 Beta Enzyme Assay
The ability of compounds to inhibit human GSK3 beta kinase activities was determined using a commercially available ADP-Glo™ Kinase Assay kit (Promega, Cat #V9102) according to the manufacturer's protocol. The ADP-Glo™ Kinase Assay is a luminescent ADP detection assay that provides a universal, homogeneous, high-throughput screening method to measure kinase activity by quantifying the amount of ADP produced during a kinase reaction. The ADP-Glo™ Kinase Assay can be used to monitor the activity of virtually any ADP-generating enzymes (e.g., kinases or ATPases).
Recombinant full-length human GSK3 beta (expressed in Sf9 insect cells with an N-terminal His tag) was purchased from SignalChem (Cat #G09-10H). The GSK3 substrate peptide (sequence: […](pS)EDEEE) was purchased from SignalChem (Cat #G50-58). This assay, run in a 384-well plate format, is a generic method for measuring kinase activities using an ADP-Glo Kinase Assay Kit. The basic assay procedure involves two steps: (1) Enzymatic step: inhibitors are incubated with the kinase and then ATP (included in the ADP-Glo Kinase Assay Kit) and the GSK3 substrate peptide are added to start the enzymatic reaction; (2) Detection step: after the kinase reaction, first ADP-Glo™ Reagent is added to terminate the kinase reaction and deplete the remaining ATP. Second, the Kinase Detection Reagent is added to simultaneously convert ADP to ATP and allow the newly synthesized ATP to be measured using a luciferase/luciferin reaction. The light generated is measured using a luminometer.
as §1, with “Briefly, GSK3 beta (4” for “Briefly, DYRK1A (3”, “at 13” for “at 20”, “and 25” for “and 60”
as §2

human CLK1 = target: T3, human CLK1 (Homo sapiens, UniProt P49759); test: CLK1 enzyme assay (ADP-Glo); conditions: ADP-Glo, ATP 10 μM; read-out: CLK1 IC50
T3 construct: Recombinant human CLK1 (129-end); GST (N); purchased SignalChem C57-11G; host or cells: Sf9 insect cells
T3 sequence (P49759 129-484 limits assumed): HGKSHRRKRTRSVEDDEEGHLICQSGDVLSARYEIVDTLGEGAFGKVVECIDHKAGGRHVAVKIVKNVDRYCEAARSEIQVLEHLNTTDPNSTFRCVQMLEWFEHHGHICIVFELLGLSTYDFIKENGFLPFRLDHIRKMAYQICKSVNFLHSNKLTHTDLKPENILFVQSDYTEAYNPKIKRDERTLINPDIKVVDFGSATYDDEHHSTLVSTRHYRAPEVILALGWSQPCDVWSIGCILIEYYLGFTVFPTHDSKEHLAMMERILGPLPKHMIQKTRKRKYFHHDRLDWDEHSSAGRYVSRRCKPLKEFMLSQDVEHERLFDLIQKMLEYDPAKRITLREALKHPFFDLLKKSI
Description: The ability of compounds to inhibit human CLK1 kinase activities was determined using a commercially available ADP-Glo™ Kinase Assay kit (Promega, Cat #V9102) according to the manufacturer's protocol.
Recombinant human CLK1 (129-end) (expressed in Sf9 insect cells with an N-terminal GST tag) was purchased from SignalChem (Cat #C57-11G). Recombinant full length human MBP (expressed in E. Coli cells with an N-terminal GST tag.) was purchased from SignalChem (Cat #M42-54G). This assay, run in a 384-well plate format, is a generic method for measuring kinase activities using an ADP-Glo Kinase Assay Kit. The basic assay procedure involves two steps: (1) Enzymatic step: inhibitors are incubated with the kinase and then ATP (included in the ADP-Glo Kinase Assay Kit) and the MBP protein are added to start the enzymatic reaction; (2) Detection step: after the kinase reaction, first ADP-Glo™ Reagent is added to terminate the kinase reaction and deplete the remaining ATP. Second, the Kinase Detection Reagent is added to simultaneously convert ADP to ATP and allow the newly synthesized ATP to be measured using a luciferase/luciferin reaction. The light generated is measured using a luminometer.
as §1, with “Briefly, CLK1 (16” for “Briefly, DYRK1A (3”, “at 2” for “at 20”, “and 10” for “and 60”
as §2

Row | IC50 (human DYRK1A) [nM] | IC50 (human GSK3 beta) [nM] | IC50 (human CLK1) [nM] | SMILES
1 | 100 to 1000 | 1000 to 10000 | 100 to 1000 | CN(C1=N/C(=C\c2ccc3ncsc3c2)C(=O)N1)c1ccc(N)cc1 [Example 44, (Z)-2-((4-aminophenyl)(methyl)amino)-5-(benzo[d]thiazol-6-ylmethylene)-3,5-dihydro-4H-imidazol-4-one]
2 | 100 to 1000 | > 10000 | 100 to 1000 | CN(C1=N/C(=C\c2ccc3ncsc3c2)C(=O)N1)c1ccc(Cl)cc1 [Example 24, (Z)-5-(benzo[d]thiazol-6-ylmethylene)-2-((4-chlorophenyl)(methyl)amino)-3,5-dihydro-4H-imidazol-4-one]
3 | < 100 | 1000 to 10000 | < 100 | NC1=N/C(=C\c2ccc3ncsc3c2)C(=O)N1 [Example 103, (Z)-2-amino-5-(benzo[d]thiazol-6-ylmethylene)-3,5-dihydro-4H-imidazol-4-one]
4 | < 100 | 100 to 1000 | < 100 | O=C1NC(Nc2ccc3[nH]ccc3c2)=N/C1=C\c1ccc2ncsc2c1 [Example 69, (Z)-2-((1H-indol-5-yl)amino)-5-(benzo[d]thiazol-6-ylmethylene)-3,5-dihydro-4H-imidazol-4-one]
5 | 1000 to 10000 | 1000 to 10000 | 100 to 1000 | CN(CCN1CCOCC1)C1=N/C(=C\c2ccc3ncsc3c2)C(=O)N1 [Example 32, (Z)-5-(benzo[d]thiazol-6-ylmethylene)-2-(methyl(2-morpholinoethyl)amino)-3,5-dihydro-4H-imidazol-4-one]
6 | 100 to 1000 | > 10000 | 100 to 1000 | COc1ccc(N(C)C2=N/C(=C\c3ccc4ncsc4c3)C(=O)N2)cc1 [Example 38, (Z)-5-(benzo[d]thiazol-6-ylmethylene)-2-((4-methoxyphenyl)(methyl)amino)-3,5-dihydro-4H-imidazol-4-one]
7 | 100 to 1000 | 1000 to 10000 | 100 to 1000 | O=C1NC(NCCN2CCOCC2)=N/C1=C\c1ccc2ncsc2c1 [Example 29, (Z)-5-(benzo[d]thiazol-6-ylmethylene)-2-((2-morpholinoethyl)amino)-3,5-dihydro-4H-imidazol-4-one]
8 | 100 to 1000 | > 10000 | 100 to 1000 | CN(C1=N/C(=C\c2ccc3c(c2)OCO3)C(=O)N1)c1cccnc1 [Example 18, (Z)-5-(benzo[d][1,3]dioxol-5-ylmethylene)-2-(methyl(pyridin-3-yl)amino)-3,5-dihydro-4H-imidazol-4-one]
9 | 1000 to 10000 | > 10000 | < 100 | O=C1NC(Nc2ccc3nc(Nc4ccccc4)sc3c2)=N/C1=C\c1ccc2ncsc2c1 [Example 104, (Z)-5-(benzo[d]thiazol-6-ylmethylene)-2-((2-(phenylamino)benzo[d]thiazol-6-yl)amino)-3,5-dihydro-4H-imidazol-4-one]
10 | 100 to 1000 | 1000 to 10000 | < 100 | CN(C1=N/C(=C\c2ccc3ncsc3c2)C(=O)N1)c1ccc2ncsc2c1 [Example 83, (Z)-2-(benzo[d]thiazol-6-yl(methyl)amino)-5-(benzo[d]thiazol-6-ylmethylene)-3,5-dihydro-4H-imidazol-4-one]
11 | 100 to 1000 | 1000 to 10000 | 100 to 1000 | O=C1NC(N(CCO)c2ccccc2)=N/C1=C\c1ccc2c(c1)OCO2 [Example 13, (Z)-5-(benzo[d][1,3]dioxol-5-ylmethylene)-2-((2-hydroxyethyl)(phenyl)amino)-3,5-dihydro-4H-imidazol-4-one]

Row | SMILES | IC50 (human DYRK1A) [nM] | IC50 (human GSK3 beta) [nM] | IC50 (human CLK1) [nM]
12 | O=C(O)CCN(C1=N/C(=C\c2ccc3c(c2)OCO3)C(=O)N1)c1ccccc1 [Example 27, (Z)-3-((4-(benzo[d][1,3]dioxol-5-ylmethylene)-5-oxo-4,5-dihydro-1H-imidazol-2-yl)(phenyl)amino)propanoic acid] | 1000 to 10000 | > 10000 | 1000 to 10000
13 | CN(Cc1ccccc1)C1=N/C(=C\c2ccc3c(c2)OCO3)C(=O)N1 [Example 23, (Z)-5-(benzo[d][1,3]dioxol-5-ylmethylene)-2-(benzyl(methyl)amino)-3,5-dihydro-4H-imidazol-4-one] | 100 to 1000 | > 10000 | 100 to 1000
14 | O=C1NC(Nc2ccccc2)=N/C1=C\c1ccc2nccnc2c1 [Example 16, (Z)-2-(phenylamino)-5-(quinoxalin-6-ylmethylene)-3,5-dihydro-4H-imidazol-4-one] | < 100 | 1000 to 10000 | < 100
15 | Cn1cnc2ccc(/C=C3\N=C(Nc4ccccc4)NC3=O)cc21 [Example 46, (Z)-5-((1-methyl-1H-benzo[d]imidazol-6-yl)methylene)-2-(phenylamino)-3,5-dihydro-4H-imidazol-4-one] | < 100 | 100 to 1000 | < 100
16 | O=C1NC(N(Cc2ccccc2)c2ccccc2)=N/C1=C\c1ccc2c(c1)OCO2 [Example 22, (Z)-5-(benzo[d][1,3]dioxol-5-ylmethylene)-2-(benzyl(phenyl)amino)-3,5-dihydro-4H-imidazol-4-one] | > 10000 | > 10000 | 1000 to 10000
17 | Cn1ncc2ccc(/C=C3\N=C(Nc4ccc5ncsc5c4)NC3=O)cc21 [Example 80, (Z)-2-(benzo[d]thiazol-6-ylamino)-5-((1-methyl-1H-indazol-6-yl)methylene)-3,5-dihydro-4H-imidazol-4-one] | > 10000 | > 10000 | > 10000
